In patent US20260297092A1, “PYRAZOLOPYRIMIDINE DERIVATIVES AS INHIBITORS OF NLRP3” (Takeda Pharmaceutical Company Limited, priority 2023, published 2026):

What was measured:
[1] = system: TNF-α (NF-κB pathway, THP-1 cells); assay: TNF-α Assay (IC50); type: cell-based, human; conditions: Homo sapiens, 600 ng/mL LPS, 3 hours
Procedure, shortened: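 Supernatant TNF-α quantified by ELISA after 3 h stimulation with 600 ng/mL LPS at 37 °C, following 30 min compound preincubation. Cells: IFN-differentiated (25 ng/mL, 24 h) THP-1 macrophages, 40,000/well, serum-free. IC50 by sigmoidal fit of % inhibition, with TPCA-1 as 100% control.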

[2] = system: NLRP3 inflammasome (IL-1β production in THP-1 cells); assay: IL-1β TR-FRET Assay (percentage of inhibition at 300 nM, 6 μM or 10 μM); type: cell-based, human; conditions: Homo sapiens, LPS priming, ATP activation; for inhibition at 6 µM: THP-1, 6 μM, read-out: IL-1β inhibitory rate at 6 μM (%); for inhibition at 0.3 µM: THP-1, 300 nM, read-out: IL-1β inhibitory rate at 300 nM (%)
Procedure, shortened: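 Percent inhibition of IL-1β used DMSO wells as 0% and 3 μM MCC-950 wells as full inhibition, with supernatant read by HTRF. Beforehand, IFN-γ-differentiated (25 ng/mL, 24 h), LPS-primed (50 ng/mL, 24 h) THP-1 cells received compound 30 min before inflammasome activation by 20 mM ATP for 2 h.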

SMILES	IC50 [1] [µM]	inhibition at 6 µM [2] [%]	inhibition at 0.3 µM [2] [%]
Cc1cc(C2CC2)cc(C(F)F)c1-n1cc2c(=O)[nH]c(C3(F)CC3)nc2n1 [Example 319, 2-[4-cyclopropyl-2-(difluoromethyl)-6-methylphenyl]-6-(1-fluorocyclopropyl)-2,5-dihydro-4H-pyrazolo[3,4-d]pyrimidin-4-one]	> 30	100	–
Cc1cc(C)c(-n2cc3c(=O)[nH]c(C(C)(C)C)nc3n2)c(O)c1 [Example 71, 6-tert-butyl-2-(2-hydroxy-4,6-dimethylphenyl)-2,5-dihydro-4H-pyrazolo[3,4-d]pyrimidin-4-one]	1.69	–	96
Cc1cc(C)c(-n2cc3c(=O)[nH]c(-c4cnccn4)nc3n2)c(O)c1 [Example 61, 2-(2-hydroxy-4,6-dimethylphenyl)-6-(pyrazin-2-yl)-2,5-dihydro-4H-pyrazolo[3,4-d]pyrimidin-4-one]	> 30	–	100
CCOc1nc2nn(-c3c(C)cc(C)c(F)c3F)cc2c(=O)[nH]1 [Example 96, 2-(2,3-difluoro-4,6-dimethylphenyl)-6-ethoxy-2,5-dihydro-4H-pyrazolo[3,4-d]pyrimidin-4-one]	> 30	–	55
CCOc1nc2nn(-c3c(C)cc(C)cc3C#N)cc2c(=O)[nH]1 [Example 152, 2-(6-ethoxy-4-oxo-4,5-dihydro-2H-pyrazolo[3,4-d]pyrimidin-2-yl)-3,5-dimethylbenzonitrile]	> 30	–	92
COCCOc1nc2nn(-c3c(C)cc(C4CC4)cc3C)cc2c(=O)[nH]1 [Example 194, 2-(4-cyclopropyl-2,6-dimethylphenyl)-6-(2-methoxyethoxy)-2,5-dihydro-4H-pyrazolo[3,4-d]pyrimidin-4-one]	> 30	–	100
CCOc1nc2nn(-c3c(F)cc(C)cc3CC)cc2c(=O)[nH]1 [Example 76, 6-ethoxy-2-(2-ethyl-6-fluoro-4-methylphenyl)-2,5-dihydro-4H-pyrazolo[3,4-d]pyrimidin-4-one]	> 30	–	94
CCOc1nc2nn(-c3c(F)cc(OC)cc3Br)cc2c(=O)[nH]1 [Example 157, 2-(2-bromo-6-fluoro-4-methoxyphenyl)-6-ethoxy-2,5-dihydro-4H-pyrazolo[3,4-d]pyrimidin-4-one]	> 30	–	102
Cc1cc(C)c(-n2cc3c(=O)[nH]c(OC(C)C)nc3n2)c(O)c1 [Example 7, 2-(2-hydroxy-4,6-dimethylphenyl)-6-[(propan-2-yl)oxy]-2,5-dihydro-4H-pyrazolo[3,4-d]pyrimidin-4-one]	> 30	–	99
CCOc1nc2nn(-c3c(C)cc(Br)cc3F)cc2c(=O)[nH]1 [Example 24, 2-(4-bromo-2-fluoro-6-methylphenyl)-6-ethoxy-2,5-dihydro-4H-pyrazolo[3,4-d]pyrimidin-4-one]	> 30	–	99
Cc1cc(C)c(-n2cc3c(=O)[nH]c(-c4cc(C)ncn4)nc3n2)c(O)c1 [Example 58, 2-(2-hydroxy-4,6-dimethylphenyl)-6-(6-methylpyrimidin-4-yl)-2,5-dihydro-4H-pyrazolo[3,4-d]pyrimidin-4-one]	> 30	–	100
Cc1cc(C2CC2)cc(C(F)F)c1-n1cc2c(=O)[nH]c(C3COCCO3)nc2n1 (racemic) [Example 316, 2-[4-cyclopropyl-2-(difluoromethyl)-6-methylphenyl]-6-(1,4-dioxan-2-yl)-2,5-dihydro-4H-pyrazolo[3,4-d]pyrimidin-4-one]	> 30	104	–
CCOc1nc2nn(-c3ccc(CC)cc3O)c(C)c2c(=O)[nH]1 [Example 49, 6-ethoxy-2-(4-ethyl-2-hydroxyphenyl)-3-methyl-2,5-dihydro-4H-pyrazolo[3,4-d]pyrimidin-4-one]	> 30	–	98
COCc1nc2nn(-c3c(C)ccc(C)c3O)cc2c(=O)[nH]1 [Example 53, 2-(2-hydroxy-3,6-dimethylphenyl)-6-(methoxymethyl)-2,5-dihydro-4H-pyrazolo[3,4-d]pyrimidin-4-one]	> 30	–	95
CCOc1nc2nn(-c3c(Br)cc(C4CC4)cc3COC)cc2c(=O)[nH]1 [Example 155, 2-[2-bromo-4-cyclopropyl-6-(methoxymethyl)phenyl]-6-ethoxy-2,5-dihydro-4H-pyrazolo[3,4-d]pyrimidin-4-one]	> 30	–	99
Cc1cc(C)c(-n2cc3c(=O)[nH]c(C(F)F)nc3n2)c(O)c1 [Example 94, 6-(difluoromethyl)-2-(2-hydroxy-4,6-dimethylphenyl)-2,5-dihydro-4H-pyrazolo[3,4-d]pyrimidin-4-one]	> 30	–	83

SMILES	IC50 [1] [µM]	inhibition at 6 µM [2] [%]	inhibition at 0.3 µM [2] [%]
CCOc1nc2nn(-c3c(Br)cc(C)c(F)c3F)cc2c(=O)[nH]1 [Example 97, 2-(6-bromo-2,3-difluoro-4-methylphenyl)-6-ethoxy-2,5-dihydro-4H-pyrazolo[3,4-d]pyrimidin-4-one]	> 30	–	66
CCOc1nc2nn(-c3c(F)cc(C4CC4)cc3F)c(C)c2c(=O)[nH]1 [Example 123, 2-(4-cyclopropyl-2,6-difluorophenyl)-6-ethoxy-3-methyl-2,5-dihydro-4H-pyrazolo[3,4-d]pyrimidin-4-one]	> 30	–	95
CO[C@@H]1CC[C@H]1c1nc2nn(-c3c(C)cc(C4CC4)cc3C)cc2c(=O)[nH]1 (racemic) [Example 253, racemic mixture of 2-(4-cyclopropyl-2,6-dimethylphenyl)-6-[(1R,2S)-2-methoxycyclobutyl]-2,5-dihydro-4H-pyrazolo[3,4-d]pyrimidin-4-one and 2-(4-cyclopropyl-2,6-dimethylphenyl)-6-[(1S,2R)-2-methoxycyclobutyl]-2,5-dihydro-4H-pyrazolo[3,4-d]pyrimidin-4-one]	> 30	95	–
CCOc1nc2nn(-c3c(C)cc(OC(F)F)cc3F)cc2c(=O)[nH]1 [Example 109]	> 30	–	99
CCOc1nc2nn(-c3c(C)cc(C4(F)CC4)cc3F)cc2c(=O)[nH]1 [Example 182, 6-ethoxy-2-[2-fluoro-4-(1-fluorocyclopropyl)-6-methylphenyl]-2,5-dihydro-4H-pyrazolo[3,4-d]pyrimidin-4-one]	> 30	–	102
CCOc1nc2nn(-c3c(C)cc(OC)cc3C)cc2c(=O)[nH]1 [Example 145, 6-ethoxy-2-(4-methoxy-2,6-dimethylphenyl)-2,5-dihydro-4H-pyrazolo[3,4-d]pyrimidin-4-one]	> 30	–	106
CCOc1nc2nn(-c3ccc(Cl)cc3O)c(C)c2c(=O)[nH]1 [Example 60, 2-(4-chloro-2-hydroxyphenyl)-6-ethoxy-3-methyl-2,5-dihydro-4H-pyrazolo[3,4-d]pyrimidin-4-one]	> 30	–	100
CCOc1nc2nn(-c3c(C)cc(C(F)F)cc3F)cc2c(=O)[nH]1 [Example 136, 2-[4-(difluoromethyl)-2-fluoro-6-methylphenyl]-6-ethoxy-2,5-dihydro-4H-pyrazolo[3,4-d]pyrimidin-4-one]	> 30	–	92
Cc1cc(C)c(-n2cc3c(=O)[nH]c(OCC(C)(F)F)nc3n2)c(O)c1 [Example 42, 6-(2,2-difluoropropoxy)-2-(2-hydroxy-4,6-dimethylphenyl)-2,5-dihydro-4H-pyrazolo[3,4-d]pyrimidin-4-one]	> 30	–	97
CO[C@@H](C)COc1nc2nn(-c3c(F)cc(C4CC4)cc3C(F)F)cc2c(=O)[nH]1 [Example 203, 2-[4-cyclopropyl-2-(difluoromethyl)-6-fluorophenyl]-6-[(2S)-2-methoxypropoxy]-2,5-dihydro-4H-pyrazolo[3,4-d]pyrimidin-4-one]	> 30	–	99
CCOc1nc2nn(-c3c(F)cc(OC)cc3CC(F)(F)F)cc2c(=O)[nH]1 [Example 162, 6-ethoxy-2-[2-fluoro-4-methoxy-6-(2,2,2-trifluoroethyl)phenyl]-2,5-dihydro-4H-pyrazolo[3,4-d]pyrimidin-4-one]	> 30	–	97
Cc1cc(C2CC2)cc(C)c1-n1cc2c(=O)[nH]c([C@H]3CC3(F)F)nc2n1 [Example 191, 2-(4-cyclopropyl-2,6-dimethylphenyl)-6-(2,2-difluorocyclopropyl)-2,5-dihydro-4H-pyrazolo[3,4-d]pyrimidin-4-one]	> 30	–	109
CCOc1nc2nn(-c3c(F)cc(C)cc3C(F)F)cc2c(=O)[nH]1 [Example 63, 2-[2-(difluoromethyl)-6-fluoro-4-methylphenyl]-6-ethoxy-2,5-dihydro-4H-pyrazolo[3,4-d]pyrimidin-4-one]	> 30	–	100
CCOc1nc2nn(-c3c(F)cc(C)cc3Cl)cc2c(=O)[nH]1 [Example 135, 2-(2-chloro-6-fluoro-4-methylphenyl)-6-ethoxy-2,5-dihydro-4H-pyrazolo[3,4-d]pyrimidin-4-one]	> 30	–	98
Cc1cc(C)c(-n2cc3c(=O)[nH]c(-c4ncccn4)nc3n2)c(O)c1 [Example 34, 2-(2-hydroxy-4,6-dimethylphenyl)-6-(pyrimidin-2-yl)-2,5-dihydro-4H-pyrazolo[3,4-d]pyrimidin-4-one]	> 30	–	98
